Values quoted from earlier work in patent US7968117B1, “Externally triggered microcapsules” (The United States of America as represented by the …, priority 1994, dated 2011).

Legend:
[1] = preferred value within the printed range
[2] = dogs' brain, artificially heated region

SMILES | HLB (preferred) [1] | heating temperature of the brain regions showing extravasation of Eb [2]
CCCCCCCCCCCCCCCCCC(=O)OCC(O)CO (centres unmarked) [Glycerol Monostearate (gms), Glycerol Monostearate] | (3.8 preferred) | 
Cc1cc(-c2ccc(/N=N/c3ccc4c(S(=O)(=O)[O-])cc(S(=O)(=O)[O-])c(N)c4c3O)c(C)c2)ccc1/N=N/c1ccc2c(S(=O)(=O)[O-])cc(S(=O)(=O)[O-])c(N)c2c1O.[Na+].[Na+].[Na+].[Na+] [free Eb, Evans blue dye] |  | greater than 44 °C
